Test results as given in patent US9381171B2 (priority 2013, dated 2016).

Tests used:
[1] = tested on: MURF-1; test: MuRF-1 protein level by western blot in C2C12 cells (FIG. 5B); format: cell-based, mouse; settings: C2C12, 0.1, 1 or 20 μM dapsone and 1 μM dexamethasone; concentration-dependent
Protocol: (§1) A C2C12 cell line (mouse gastrocnemius muscle, ATCC®CRL-1772™) was inoculated in a 10% FBS/DMEM culture medium in a 60 mm culture dish. When the cells were grown to about 70% confluency in a 5% CO2 incubator at a temperature of 37° C., the culture medium was changed to a 2% FBS/DMEM culture medium to allow complete differentiation after incubation for 4 days. The C2C12 cell line is a mouse myoblast cell line obtained through continuous culture of myoblasts that are cultured from the gastrocnemius muscle of C3H mice. […] Here, 1 μM of dexamethasone was added thereto and cultured together for 24 hours as described above.
(§2) After the medium was removed from the culture and the cells were collected therefrom, 500 μl of an RIPA lysis buffer was added for lysing the cells. Then, the resulting lysates were subjected to electrophoresis and western blot analysis with respect to Atrogin-1, MuRF-1, and α-tubulin. A primary antibody used in the western blot analysis was a rabbit anti-Atrogin-1 antibody (ECM Bioscience), a MuRF-1 antibody (GeneTax), and α-tubulin (Cell Signaling Technology, USA) antibody, and a secondary antibody used in the western blot analysis was an HRP-conjugated anti-rabbit antibody (Jackson ImmunoResearch).

[2] = tested on: phosphorylated FOXO1-p (Ser256); test: Factors of atrophy: western blot of FOXO1-p in C2C12 cells (FIG. 4); format: cell-based, mouse; settings: C2C12, 0.1, 1, 20 μM dapsone 12 hours, then 1 μM dexamethasone 2 hours
Protocol: as §1, with “2” for “24”
(§3) After the medium was removed from the culture and the cells were collected therefrom, 500 μl of an RIPA lysis buffer (including 20 mM Tris-HCl (pH 7.5), 150 mM NaCl, 1 mM Na2EDTA, 1 mM EGTA, 1% NP-40, 1% sodium deoxycholate, 2.5 mM sodium pyrophosphate, 1 mM beta-glycerophosphate, 1 mM Na3VO4, and 1 μg/ml leupeptin) was added for lysing the cells. […]

[3] = tested on: Atrogin-1; test: Atrogin-1 protein level by western blot in C2C12 cells (FIG. 5B); format: cell-based, mouse; settings: C2C12, 0.1, 1 or 20 μM dapsone and 1 μM dexamethasone; concentration-dependent
Protocol: as §1, §2

[4] = tested on: Atrogin-1 mRNA; test: Atrogin-1 mRNA level by real time PCR in C2C12 cells (FIG. 5A); format: cell-based, mouse; settings: C2C12, 20 μM dapsone and 1 μM dexamethasone, 24 hours; normalized to GAPDH mRNA
Protocol: (§4) Here, 1 μM of dexamethasone was added thereto and incubated for 24 hours. Then, the amounts of the expressed mRNA of the Atrogin-1 and MuRF-1 among the C2C12 cells were confirmed. Here, the complete RNA was separated by using a Trizol reagent (Invitrogen). The analysis of the mRNAs of Atrogin-1 and MuRF-1 was performed by using a real time […] instrument, BioRad), which is a device for measuring reverse transcription and SYBR Green. The resulting amounts then normalize to the amount of GAPDH mRNA. The amplification of Atrogin-1, MuRF-1, and GAPDH mRNAs was performed by using an oligonucleotide primer set of SEQ ID NOS: 1 and 2, an oligonucleotide primer set of SEQ ID NOS: 3 and 4, and an oligonucleotide primer set of SEQ ID NOS: 5 and 6.

[5] = tested on: SOL muscle of the hind-limb of a mouse; settings: mouse fed 4 mg/kg dexamethasone and 2 mg/kg dapsone for 3 weeks, 0.2 Hz (100 V)
Protocol: (§5) The SOL muscle was separated from a female mouse (which weighs about 20 g) aged about 3 months. The mouse was anesthetized by sodium pentobarbital injection (100 mg/kg body weight). The SOL muscle, which is a type I muscle, was separated by paying attention to each hind-limb of the mouse while maintaining ligaments from both hind-limbs without damaging the SOL muscle. Then, the separated SOL muscle was put in an oxygen-treated Ringer's solution (118 mM NaCl, 4.75 mM KCl, 2.5 mM CaCl2, 1.18 mM MgSO4, 1.18 mM NaH2PO4, 24.8 mM NaHCO3, 10 mM glucose, and 0.02 g/l tubocurarine chloride, 25° C., pH 7.4) (Sigma Aldrich), set, and stabilized. One side of the separated SOL muscle was filled with the Ringer's solution to fix the separated SOL muscle on a tissue bath with smooth oxygen supply while the other side of the separated SOL muscle was fixed on a FT03 isometric force transducer (Grass Instruments, West Warwick, USA). Here, the muscle twitching was adjusted according to the intensity of the electric field stimulation. […] Here, the muscle contractility value (mN) represents the muscle twitch contraction.

[6] = tested on: MURF-1 mRNA; test: MuRF-1 mRNA level by real time PCR in C2C12 cells (FIG. 5A); format: cell-based, mouse; settings: C2C12, 20 μM dapsone and 1 μM dexamethasone, 24 hours; normalized to GAPDH mRNA
Protocol: as §4

[7] = tested on: SOL muscle of the hind-limb of a mouse; test: Muscle fatigability of SOL muscle separated from fed mice (FIG. 7); format: in vivo; settings: 150 Hz, 100 V, stimulation every 2 seconds for 30 seconds
Protocol: as §5

[8] = tested on: phosphorylated Akt-p (Ser473); test: Factors of atrophy: western blot of Akt-p in C2C12 cells (FIG. 4); format: cell-based, mouse; settings: C2C12, 0.1, 1, 20 μM dapsone 12 hours, then 1 μM dexamethasone 2 hours; concentration-dependent
Protocol: as §1, with “2” for “24”
as §3

Row | degree of the muscle fatigability ([7]; upon intake of dexamethasone) | SMILES | protein level of MURF-1 [1] | amount of the FOXO1-p protein [2] | protein level of Atrogin-1 [3] | mRNA level of Atrogin-1 [4] | increase of twitch contractility compared with mouse fed on dexamethasone [5] [%] | mRNA level of MURF-1 [6] | decrease of muscle fatigability compared with intake of only dexamethasone ([7]; intake of both dexamethasone and dapsone) [%] | amount of the Akt-p [8]
1 | – | Nc1ccc(S(=O)(=O)c2ccc(N)cc2)cc1 [dapsone, 4-[(4-aminobenzene)sulfonyl]aniline] | significantly decreased | decreased | significantly decreased | significantly decreased | 43.7 | significantly decreased | 20.3 | increased
2 | increased | C[C@@H]1C[C@H]2[C@@H]3CCC4=CC(=O)C=C[C@]4(C)[C@@]3(F)[C@@H](O)C[C@]2(C)[C@@]1(O)C(=O)CO [dexamethasone] | – | – | – | – | – | – | – | –
